Measured values published in article PMC11503492, “Activity-Based DNA-Encoded Library Screening for Selective Inhibitors of Eukaryotic Translation” (ACS Central Science, 2024).
“Also recorded” adds a separate entry of the source.

Columns and labels:
[1] = tested on: RPL27[1:32]-GFP translation; experiment: WG IVTT activity assay, RPL27[1:32]-GFP template; type: biochemical, wheat germ
Description: A commercially available wheat germ lysate (WG) IVTT system was employed to assay translation inhibition. Translation activity was detected via a GFP reporter, and the assay was miniaturized to picoliter-scale microfluidic droplets (Figure 1A,B). […] PCSK9 and RPL27 were truncated to the first 33 and 32 amino acids, respectively (PCSK9[1:33] and RPL27[1:32]). The sequences contain distinct PF846 stall sites and were both fused to a GFP reporter. The GFP reporter and a frameshift mutant of PCSK9[1:33] (PCSK9-FS[1:33]), which mutates the nascent chain sequence while maintaining a nearly identical mRNA sequence, were included as negative controls.[13] […] The WG IVTT assay was miniaturized using a previously described microfluidic circuit modified for longer incubation times (Figure S1)[27] using PF846 as a positive control compound, and assay statistical quality was calculated (Z′=0.7) (Figure 1E). […] Assay statistical quality using PC-HygB positive control beads was similarly calculated (Z′ = 0.75, Figure 1H). […]
429 of encoding region identifiers was then determined using a UMI aggregation algorithm; […]
433 manually determined threshold (10) were discarded. […]
440 progress was immediately monitored (λex = 480 nm, λem = 530 nm, 27 °C, 2 h). […]
441 tive activity was calculated using the slope of fluorescence increase over time (at 15–30 […]
Figure S11. […] Compound 8 (black) and PF846 (gray) were analyzed […]

[2] = tested on: PCSK9 expression in HepG2 cells; experiment: HepG2 cellular assay, PCSK9 Western blot; type: cell-based; conditions: 16 h treatment, 5 or 50 µM, triplicate, normalized to DMSO
Procedure: Reaction buffer (1 µL) and template (0.5 µL) were added and reaction progress was
Relative activity was cal-
450 culated using the slope of fluorescence increase over time (15–30 min post reaction initia-
Gene blocks were purchased from IDT
Digestion with Sgf I and PmeI allowed for
Sequence-verified plasmids
460 were cloned into DH5α E. coli for standard large-scale DNA plasmid preparation.
Gene blocks were purchased
Digestion with NdeI and XhoI
470 (4.5 g/L high-glucose DMEM, 2 mM L-glutamine, 10% fetal bovine serum, 1% penicillin-
Cells were lysed (100 µL RIPA buffer,
Protein lysates (24 µg) were separated by denaturing polyacrylamide
480 PCSK9 rabbit monoclonal antibody, 5% BSA in PBS-T). The PCSK9 probed membrane
HRP-labeled bands were visualized
Figure S12. […] PCSK9 expression in HepG2 cells
treated 16 h with PF846 or screening hit 8 (5 or 50 µM) or vehicle control (DMSO) was analyzed in triplicate
(also on this page, place not known: S12894 GAPDH pro m DMSO 5 μM DMSO μM 5 μM 50 μM PCSK9 PF846 hit8 50)
(§1) (1 picture or pasted object on this page, not shown here)

[3] = tested on: PCSK9[1:33]-GFP in vitro transcription; experiment: PCSK9[1:33]-GFP T7 in vitro transcription reaction, agarose gel; type: biochemical; conditions: PCSK9[1:33]-GFP T7 transcription, 1.5% agarose gel
Procedure: Figure S10. Activity of compounds 8 and 9 on transcription. (A) Screening hits 8 and 9 were analyzed in dose-response IVTT activity assays of PCSK9[1:33]-GFP initiated with DNA (black) and RNA (gray) template. (B) Products of PCSK9[1:33]-GFP T7 transcription reactions incubated with DMSO, screening hits 8 and 9, or PF846 were visualized on a 1.5% agarose gel
as §1

| Structure (SMILES) | activity on RPL27[1:32]-GFP translation (in words) [1] | PCSK9 protein levels in HepG2 cells (in words) [2] | effect on in vitro transcription product (in words) [3] |
| --- | --- | --- | --- |
| Cc1cccc2ccnc(N(C(=O)[C@H]3CCCN(C(=O)c4cccc5c(C#N)c[nH]c45)C3)[C@@H]3CCCNC3)c12 [Compound 8] | most active | significantly reduced; also recorded: lower levels of endogenous PCSK9 |  |
| Cc1cccc2ccnc(N(C(=O)C3CCN(C(=O)c4cccc5c(C#N)c[nH]c45)CC3)[C@@H]3CCCNC3)c12 [Compound 9] |  |  | no visible transcript product; also recorded: completely eliminates RNA yield; also recorded: nonselectively inhibits transcription |
